Legend:
[1] = molecular target: CDK8/Cyclin C (Homo sapiens) (UniProt P49336+P24863); assay: Residual activity of CDK8/Cyclin C at 1 uM by microplate scintillation counting; format: protein-complex assay
[2] = molecular target: T1, Ephrin type-A receptor 8 (Homo sapiens) (UniProt P29322); assay: Residual activity of EPHA8 at 1 uM by microplate scintillation counting
T1 sequence (whole entry): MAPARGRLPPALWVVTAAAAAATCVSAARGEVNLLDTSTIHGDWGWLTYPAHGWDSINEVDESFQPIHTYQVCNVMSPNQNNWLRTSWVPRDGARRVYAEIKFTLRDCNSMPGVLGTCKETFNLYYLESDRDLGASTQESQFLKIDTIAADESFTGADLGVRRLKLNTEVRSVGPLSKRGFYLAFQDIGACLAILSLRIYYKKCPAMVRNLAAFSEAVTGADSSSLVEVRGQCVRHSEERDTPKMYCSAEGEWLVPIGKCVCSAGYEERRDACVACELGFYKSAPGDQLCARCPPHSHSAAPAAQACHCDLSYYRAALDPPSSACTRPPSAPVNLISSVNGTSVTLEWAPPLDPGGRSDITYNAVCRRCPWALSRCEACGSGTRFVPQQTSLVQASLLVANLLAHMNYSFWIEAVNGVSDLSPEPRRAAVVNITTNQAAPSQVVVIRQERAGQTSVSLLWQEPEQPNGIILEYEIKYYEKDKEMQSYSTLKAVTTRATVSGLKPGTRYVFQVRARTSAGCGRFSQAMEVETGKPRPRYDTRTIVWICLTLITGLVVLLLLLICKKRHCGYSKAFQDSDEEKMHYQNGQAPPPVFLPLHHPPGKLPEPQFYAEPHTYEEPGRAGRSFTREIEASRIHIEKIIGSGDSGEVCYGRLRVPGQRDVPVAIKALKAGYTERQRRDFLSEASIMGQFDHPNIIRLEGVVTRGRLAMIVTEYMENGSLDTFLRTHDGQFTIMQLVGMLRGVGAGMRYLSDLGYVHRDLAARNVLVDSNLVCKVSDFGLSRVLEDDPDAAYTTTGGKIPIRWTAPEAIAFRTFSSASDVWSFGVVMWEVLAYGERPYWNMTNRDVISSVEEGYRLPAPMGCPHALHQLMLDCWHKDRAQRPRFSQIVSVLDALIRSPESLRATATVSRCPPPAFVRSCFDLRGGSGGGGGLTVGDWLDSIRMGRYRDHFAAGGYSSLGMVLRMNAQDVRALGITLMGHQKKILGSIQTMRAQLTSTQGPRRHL

[3] = molecular target: Macrophage colony-stimulating factor 1 receptor (Homo sapiens) (UniProt P07333); assay: Residual activity of CSF1R at 0.1 uM by microplate scintillation counting
Chain of Macrophage colony-stimulating factor 1 receptor (Homo sapiens) (P07333 whole entry): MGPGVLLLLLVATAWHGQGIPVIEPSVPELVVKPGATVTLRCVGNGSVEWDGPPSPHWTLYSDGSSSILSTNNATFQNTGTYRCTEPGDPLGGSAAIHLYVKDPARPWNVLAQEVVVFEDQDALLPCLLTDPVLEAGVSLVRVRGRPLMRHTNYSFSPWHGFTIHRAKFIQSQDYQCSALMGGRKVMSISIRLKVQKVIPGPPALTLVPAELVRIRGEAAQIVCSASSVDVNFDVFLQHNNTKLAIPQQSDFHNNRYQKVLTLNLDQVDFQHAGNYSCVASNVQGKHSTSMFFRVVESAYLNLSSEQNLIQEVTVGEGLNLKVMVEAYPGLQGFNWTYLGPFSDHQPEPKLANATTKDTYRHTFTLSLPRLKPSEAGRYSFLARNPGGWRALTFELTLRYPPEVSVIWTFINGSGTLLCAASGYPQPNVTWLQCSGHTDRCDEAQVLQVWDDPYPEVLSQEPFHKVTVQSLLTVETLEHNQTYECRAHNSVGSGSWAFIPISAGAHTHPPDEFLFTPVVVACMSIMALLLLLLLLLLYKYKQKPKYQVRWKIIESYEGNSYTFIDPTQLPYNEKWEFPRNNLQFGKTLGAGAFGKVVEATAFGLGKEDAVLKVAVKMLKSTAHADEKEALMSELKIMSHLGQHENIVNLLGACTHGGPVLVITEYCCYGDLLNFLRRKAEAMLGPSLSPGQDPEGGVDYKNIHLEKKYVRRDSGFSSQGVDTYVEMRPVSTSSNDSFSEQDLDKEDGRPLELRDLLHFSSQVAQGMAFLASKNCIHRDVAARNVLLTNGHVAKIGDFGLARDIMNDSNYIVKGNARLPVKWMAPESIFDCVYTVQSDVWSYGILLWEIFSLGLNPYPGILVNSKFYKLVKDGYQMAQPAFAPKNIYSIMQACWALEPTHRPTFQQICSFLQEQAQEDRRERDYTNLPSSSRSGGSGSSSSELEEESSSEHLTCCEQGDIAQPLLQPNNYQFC

[4] = molecular target: Protein kinase C alpha type (Homo sapiens) (UniProt P17252); assay: Residual activity of PKCalpha at 1 uM by microplate scintillation counting
[5] = molecular target: Mitogen-activated protein kinase 9 (Homo sapiens) (UniProt P45984); assay: Residual activity of JNK2 at 1 uM by microplate scintillation counting
Chain of Mitogen-activated protein kinase 9 (Homo sapiens) (P45984 whole entry, looked up): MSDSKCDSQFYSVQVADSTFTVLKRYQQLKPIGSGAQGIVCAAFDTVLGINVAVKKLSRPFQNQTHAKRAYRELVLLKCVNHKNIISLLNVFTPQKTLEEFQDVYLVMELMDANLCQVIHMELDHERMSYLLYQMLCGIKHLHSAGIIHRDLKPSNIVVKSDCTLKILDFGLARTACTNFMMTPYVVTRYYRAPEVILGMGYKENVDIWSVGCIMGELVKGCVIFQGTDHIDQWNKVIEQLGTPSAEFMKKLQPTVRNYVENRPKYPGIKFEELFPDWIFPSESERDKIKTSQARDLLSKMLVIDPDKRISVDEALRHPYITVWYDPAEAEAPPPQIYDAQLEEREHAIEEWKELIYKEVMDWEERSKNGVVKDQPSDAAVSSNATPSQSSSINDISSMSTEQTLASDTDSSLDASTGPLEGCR

[6] = molecular target: Tyrosine-protein kinase Lck (Homo sapiens) (UniProt P06239); assay: Residual activity of LCK at 1 uM by microplate scintillation counting
Chain of Tyrosine-protein kinase Lck (Homo sapiens) (P06239 2-509 limits assumed): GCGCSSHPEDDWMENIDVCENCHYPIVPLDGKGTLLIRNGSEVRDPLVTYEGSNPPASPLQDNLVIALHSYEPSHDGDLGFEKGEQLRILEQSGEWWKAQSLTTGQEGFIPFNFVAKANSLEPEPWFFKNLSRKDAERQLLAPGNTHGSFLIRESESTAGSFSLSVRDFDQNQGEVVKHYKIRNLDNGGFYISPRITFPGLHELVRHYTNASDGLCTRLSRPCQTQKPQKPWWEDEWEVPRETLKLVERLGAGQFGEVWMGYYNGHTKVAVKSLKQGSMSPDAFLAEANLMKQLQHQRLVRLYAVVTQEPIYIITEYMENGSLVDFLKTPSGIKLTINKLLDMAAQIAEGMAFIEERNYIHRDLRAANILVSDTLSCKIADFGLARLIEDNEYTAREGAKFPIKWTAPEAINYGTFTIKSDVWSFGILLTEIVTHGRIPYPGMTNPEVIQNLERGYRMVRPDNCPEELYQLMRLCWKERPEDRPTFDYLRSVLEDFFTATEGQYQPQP

[7] = molecular target: Serine/threonine-protein kinase MARK1 (Homo sapiens) (UniProt Q9P0L2); assay: Residual activity of MARK1 at 1 uM by microplate scintillation counting
Chain of Serine/threonine-protein kinase MARK1 (Homo sapiens) (Q9P0L2 whole entry, looked up): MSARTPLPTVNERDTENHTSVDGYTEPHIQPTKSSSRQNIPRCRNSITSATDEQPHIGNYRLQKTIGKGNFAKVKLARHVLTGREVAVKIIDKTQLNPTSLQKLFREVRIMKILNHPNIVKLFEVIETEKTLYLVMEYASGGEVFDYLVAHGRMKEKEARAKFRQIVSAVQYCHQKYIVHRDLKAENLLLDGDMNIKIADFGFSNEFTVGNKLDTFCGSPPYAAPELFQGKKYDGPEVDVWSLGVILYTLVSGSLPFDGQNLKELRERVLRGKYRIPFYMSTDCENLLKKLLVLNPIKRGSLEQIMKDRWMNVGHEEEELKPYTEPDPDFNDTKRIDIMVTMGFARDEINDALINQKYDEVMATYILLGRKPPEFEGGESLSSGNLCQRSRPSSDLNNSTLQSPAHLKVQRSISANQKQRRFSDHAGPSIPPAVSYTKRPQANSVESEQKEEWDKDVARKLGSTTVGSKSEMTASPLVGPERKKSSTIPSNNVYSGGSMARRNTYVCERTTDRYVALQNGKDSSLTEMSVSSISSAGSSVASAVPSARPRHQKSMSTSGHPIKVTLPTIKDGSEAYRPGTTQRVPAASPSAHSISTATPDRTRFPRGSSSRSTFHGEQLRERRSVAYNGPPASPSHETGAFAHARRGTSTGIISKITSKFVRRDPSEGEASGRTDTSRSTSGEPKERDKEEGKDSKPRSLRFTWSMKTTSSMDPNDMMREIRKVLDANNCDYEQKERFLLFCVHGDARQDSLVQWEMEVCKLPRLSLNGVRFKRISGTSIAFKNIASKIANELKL

[8] = system: Mast/stem cell growth factor receptor Kit (Homo sapiens), P10721 [T670I]; assay: Residual activity of KIT T670I mutant at 10 uM by microplate scintillation counting
Chain of Mast/stem cell growth factor receptor Kit (Homo sapiens), P10721 [T670I] (P10721 whole entry T670I): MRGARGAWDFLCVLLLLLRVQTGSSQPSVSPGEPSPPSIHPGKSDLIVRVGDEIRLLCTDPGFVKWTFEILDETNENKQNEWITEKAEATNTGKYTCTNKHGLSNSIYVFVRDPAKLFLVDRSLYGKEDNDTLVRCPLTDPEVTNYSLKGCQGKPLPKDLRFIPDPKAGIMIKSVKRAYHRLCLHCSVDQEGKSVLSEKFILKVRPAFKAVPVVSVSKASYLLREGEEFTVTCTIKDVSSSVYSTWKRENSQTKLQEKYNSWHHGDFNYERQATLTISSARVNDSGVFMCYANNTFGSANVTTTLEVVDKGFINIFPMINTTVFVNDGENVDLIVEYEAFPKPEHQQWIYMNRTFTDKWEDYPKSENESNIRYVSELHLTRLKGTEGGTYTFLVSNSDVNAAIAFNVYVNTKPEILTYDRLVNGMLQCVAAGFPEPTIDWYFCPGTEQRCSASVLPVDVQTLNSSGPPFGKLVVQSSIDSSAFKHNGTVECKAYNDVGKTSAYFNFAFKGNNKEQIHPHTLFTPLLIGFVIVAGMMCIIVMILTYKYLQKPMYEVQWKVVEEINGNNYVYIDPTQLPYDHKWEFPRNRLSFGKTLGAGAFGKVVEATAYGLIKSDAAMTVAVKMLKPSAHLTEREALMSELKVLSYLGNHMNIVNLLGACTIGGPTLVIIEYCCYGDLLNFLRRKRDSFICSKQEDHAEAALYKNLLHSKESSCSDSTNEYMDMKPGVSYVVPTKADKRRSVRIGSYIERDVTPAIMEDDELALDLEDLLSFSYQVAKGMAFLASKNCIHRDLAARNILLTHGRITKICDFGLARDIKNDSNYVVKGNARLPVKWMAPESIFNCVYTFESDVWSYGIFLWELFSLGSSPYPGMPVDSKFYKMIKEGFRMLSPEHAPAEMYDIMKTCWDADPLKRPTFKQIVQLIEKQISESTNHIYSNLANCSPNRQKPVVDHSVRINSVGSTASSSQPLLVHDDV

[9] = molecular target: Mast/stem cell growth factor receptor Kit (Homo sapiens) (UniProt P10721); assay: Residual activity of wild type KIT at 10 uM by microplate scintillation counting
Chain of Mast/stem cell growth factor receptor Kit (Homo sapiens) (P10721 whole entry): as the sequence (P10721 whole entry T670I) above, with I670T counted along it

[10] = molecular target: T2, Ephrin type-A receptor 1 (Homo sapiens) (UniProt P21709); assay: Residual activity of EPHA1 at 0.1 uM by microplate scintillation counting
T2 sequence (whole entry): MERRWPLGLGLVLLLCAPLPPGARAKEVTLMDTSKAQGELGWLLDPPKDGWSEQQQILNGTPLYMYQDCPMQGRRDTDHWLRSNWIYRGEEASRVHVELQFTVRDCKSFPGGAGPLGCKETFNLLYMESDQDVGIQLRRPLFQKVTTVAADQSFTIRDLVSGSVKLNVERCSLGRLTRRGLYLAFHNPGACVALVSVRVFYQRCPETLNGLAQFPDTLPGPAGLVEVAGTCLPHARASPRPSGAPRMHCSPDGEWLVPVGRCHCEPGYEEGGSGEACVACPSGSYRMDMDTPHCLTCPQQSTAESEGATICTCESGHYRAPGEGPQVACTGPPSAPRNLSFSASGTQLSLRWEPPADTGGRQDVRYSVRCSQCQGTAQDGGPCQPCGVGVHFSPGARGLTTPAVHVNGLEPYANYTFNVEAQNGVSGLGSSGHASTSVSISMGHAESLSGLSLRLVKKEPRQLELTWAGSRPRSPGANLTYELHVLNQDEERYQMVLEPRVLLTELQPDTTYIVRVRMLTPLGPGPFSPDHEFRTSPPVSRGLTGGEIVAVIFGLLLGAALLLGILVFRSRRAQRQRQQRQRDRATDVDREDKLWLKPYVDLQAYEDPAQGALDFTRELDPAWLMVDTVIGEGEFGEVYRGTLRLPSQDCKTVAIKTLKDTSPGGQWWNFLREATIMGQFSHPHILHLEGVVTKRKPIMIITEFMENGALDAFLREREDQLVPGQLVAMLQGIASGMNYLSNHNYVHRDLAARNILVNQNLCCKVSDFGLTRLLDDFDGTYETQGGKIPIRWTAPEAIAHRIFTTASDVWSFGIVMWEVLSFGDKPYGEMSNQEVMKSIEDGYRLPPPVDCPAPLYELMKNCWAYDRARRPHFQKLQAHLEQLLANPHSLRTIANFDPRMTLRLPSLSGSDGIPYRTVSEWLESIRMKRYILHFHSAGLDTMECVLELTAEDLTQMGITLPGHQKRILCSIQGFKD

[11] = molecular target: CDK1/Cyclin A (Homo sapiens) (UniProt P06493+P20248); assay: Residual activity of CDK1/Cyclin A at 0.1 uM by microplate scintillation counting; format: protein-complex assay
Chain of CDK1/Cyclin A (Homo sapiens) (P06493 whole entry, looked up): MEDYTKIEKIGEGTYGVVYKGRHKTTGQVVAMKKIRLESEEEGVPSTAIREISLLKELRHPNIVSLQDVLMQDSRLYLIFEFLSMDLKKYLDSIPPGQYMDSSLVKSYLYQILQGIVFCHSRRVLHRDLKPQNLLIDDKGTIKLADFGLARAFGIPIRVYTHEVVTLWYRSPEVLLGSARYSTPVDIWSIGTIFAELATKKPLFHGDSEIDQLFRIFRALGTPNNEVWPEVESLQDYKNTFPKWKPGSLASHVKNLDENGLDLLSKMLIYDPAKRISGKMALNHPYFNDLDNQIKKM
Chain of CDK1/Cyclin A (Homo sapiens) (P20248 whole entry, looked up): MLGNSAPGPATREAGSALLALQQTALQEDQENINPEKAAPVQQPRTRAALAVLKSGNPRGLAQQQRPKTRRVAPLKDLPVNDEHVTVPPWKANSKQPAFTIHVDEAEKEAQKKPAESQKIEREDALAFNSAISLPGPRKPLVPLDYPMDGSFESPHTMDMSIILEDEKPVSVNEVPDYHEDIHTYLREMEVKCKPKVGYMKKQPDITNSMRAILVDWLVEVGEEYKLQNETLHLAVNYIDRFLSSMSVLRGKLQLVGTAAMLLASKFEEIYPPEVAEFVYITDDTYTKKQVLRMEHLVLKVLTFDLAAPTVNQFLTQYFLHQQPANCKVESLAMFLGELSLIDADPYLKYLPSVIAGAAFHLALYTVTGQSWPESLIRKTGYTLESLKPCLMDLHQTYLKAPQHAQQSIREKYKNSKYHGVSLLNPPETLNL

[12] = molecular target: T3, Mitogen-activated protein kinase 12 (Homo sapiens) (UniProt P53778); assay: Residual activity of p38-gamma at 0.1 uM by microplate scintillation counting
T3 sequence (whole entry): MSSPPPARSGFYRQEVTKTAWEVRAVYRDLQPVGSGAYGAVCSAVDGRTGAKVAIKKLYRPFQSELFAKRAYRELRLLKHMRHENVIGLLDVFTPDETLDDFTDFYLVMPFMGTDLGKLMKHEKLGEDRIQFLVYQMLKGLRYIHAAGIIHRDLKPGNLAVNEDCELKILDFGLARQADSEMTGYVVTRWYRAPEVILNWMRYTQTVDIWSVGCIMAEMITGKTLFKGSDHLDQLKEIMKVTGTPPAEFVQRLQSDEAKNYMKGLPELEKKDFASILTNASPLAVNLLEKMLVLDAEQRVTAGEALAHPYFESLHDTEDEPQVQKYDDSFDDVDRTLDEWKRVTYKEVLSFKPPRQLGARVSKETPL

SMILES | residual activity [1] | residual activity [2] | residual activity [3] | residual activity [4] | residual activity [5] | residual activity [6] | residual activity [7] | residual activity [8] | residual activity [9] | residual activity [10] | residual activity [11] | residual activity [12]
COc1cc2c(Oc3ccc(-c4nc5ccccc5s4)cc3)ncnc2cc1OCCCN1CCN(C)CC1 | 79% | 123% | 93% | 99% | 121% | 46% | 86% | 40% | 30% | 112% | 94% | 93%
COc1cc2c(Oc3ccc(-c4nc5ccccc5s4)cc3F)ncnc2cc1OCCCN1CCN(C)CC1 | 81% | 149% | 88% | 98% | 119% | 50% | 90% | 18% | 32% | 106% | 99% | 86%
COc1cc2c(Oc3ccc(-c4nc5ccccc5s4)cc3)ncnc2cc1OCCCN1CCCC1 | 95% | 147% | 120% | 128% | 90% | 64% | 86% | 52% | 31% | 102% | 109% | 86%

Source: ChEMBL document CHEMBL1152560, “Substituted 2-arylbenzothiazoles as kinase inhibitors: hit-to-lead optimization” (Bioorg Med Chem, 2009)
